These are literature values, as cited in patent US20050058718A1, “Preparations for cigarette toxicity reduction, health enhancement, and addiction elimination” (priority 2003, published 2005).

The structures appear in SMILES notation.

The test system of one data set is cancer cells. The conditions noted are these: cancer cells external of the human body treated by selenium.
Data set [1] relates to leukoderma in their mouths and throats. The note with it: 3 ppm selenium in drinking water.
The mark [2] stands for this setting: 1300 people, 200 ug selenium daily for five years.

As to `[Se]` [selenium], the “decrease of carcinogenicity of cancer cells” value in the data set with cancer cells was 60%. In addition, the “delay of cancer formation versus control group” value in data set [1] is “two more weeks”. Moreover, in the data set with cancer incidence (setting [2]), the “reduction of large intestine and rectum cancer incidence” value is recorded as 58%; the “reduction of lung cancer incidence” value was 46%; the “reduction of prostate cancer incidence” value is given as 63%. Besides, the “more chance to survive when sick from cancer” value with cancer incidence (selenium takers sick from cancer) is given as 50%.
